From patent US10407467B2, “Polymyxin derivatives and their use in combination therapy together with different antibiotics” (priority 2013, dated 2019)
Counter-ions that a name gives are not always drawn. Bridge positions count the residues as written; N and C are the ends. Square brackets hold non-standard residues; d marks the D form. Peptide text beside a SMILES is read from it. * marks the point of attachment. ξ: configuration not given here. ξHexahydromandeloyl = O=C(C(O)C1CCCCC1)*; Thr(3ξ) = CC(O)[C@H](N)C(=O)O; Dab = NCC[C@H](N)C(=O)O; Dap = NC[C@H](N)C(=O)O; X4 = NC1CCCC1C(=O)*

Experiments:
Type in all cases: cell-based
Klebsiella pneumoniae [1] = test: MIC, compound in combination with a second agent (broth microdilution); conditions: 1:1 (wt:wt) combination with Rifampicin, MIC = total drug concentration; for MIC K. pneumoniae ATCC 4352: strain ATCC 4352; for MIC K. pneumoniae ATCC-BAA-2146: strain ATCC-BAA-2146; for MIC K. pneumoniae CCUG-59348: strain CCUG-59348
Outline: (§1)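 MIC = combined concentration of test compound plus partner agent, mixed at equal mass (1:1 w/w, salt form as used). Up to four strains per species; colonies adjusted to 0.5 McFarland. Run in duplicate; >2-fold disagreement invalidates the run.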

Acinetobacter baumannii [2] = test: as above; conditions: 1:1 (wt:wt) combination with Rifampicin, MIC = total drug concentration; for MIC A. baumannii CCUG57249: strain CCUG57249; for MIC A. baumannii NCTC 13423: strain NCTC 13423; for MIC A. baumannii NCTC 13424: strain NCTC 13424
Outline: as §1

Escherichia coli [3] = test: as above; conditions: 1:1 (wt:wt) combination with Rifampicin, MIC = total drug concentration; for MIC E. coli ATCC25922: strain ATCC25922
Outline: as §1

Pseudomonas aeruginosa [4] = test: as above; conditions: 1:1 (wt:wt) combination with Rifampicin, MIC = total drug concentration; for MIC P. aeruginosa ATCC 27853: strain ATCC 27853; for MIC P. aeruginosa ATCC CRM-9027: strain ATCC CRM-9027; for MIC P. aeruginosa ATCC-47: strain ATCC-47; for MIC P. aeruginosa CCUG 59626: strain CCUG 59626
Outline: as §1

Klebsiella pneumoniae [5] = test: MIC, sole activity (no second agent); conditions: in the absence of Rifampicin; for MIC K. pneumoniae ATCC 4352: strain ATCC 4352; for MIC K. pneumoniae ATCC-BAA2146: strain ATCC-BAA2146; for MIC K. pneumoniae CCUG-59348: strain CCUG-59348
Outline: (§2)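 First, isolated colonies grown 18-24 hours on Mueller-Hinton agar were suspended to 0.5 McFarland; next, up to four strains per pathogen were tested in duplicate in cation-adjusted MHB; finally, the lower concordant value or modal repeat value was reported against Polymyxin B.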

Acinetobacter baumannii [6] = test: MIC, sole activity (no second agent); conditions: in the absence of Rifampicin; for MIC A. baumannii ATCC13424: strain ATCC13424; for MIC A. baumannii ATCCBAA-747: strain ATCCBAA-747; for MIC A. baumannii CCUG57249: strain CCUG 57249; for MIC A. baumannii NCTC 13423: strain NCTC13423
Outline: as §2

Escherichia coli [7] = test: MIC, sole activity (no second agent); conditions: in the absence of Rifampicin; for MIC E. coli NCTC9001: strain NCTC9001
Outline: as §2

Pseudomonas aeruginosa [8] = test: MIC, sole activity (no second agent); conditions: in the absence of Rifampicin; for MIC P. aeruginosa ATCC 27853: strain ATCC27853; for MIC P. aeruginosa ATCC-47: strain ATCC-47; for MIC P. aeruginosa ATCCCRM-9027: strain ATCCCRM-9027; for MIC P. aeruginosa CCUG 59626: strain CCUG 59626
Outline: as §2

MIC K. pneumoniae ATCC 4352 (Klebsiella pneumoniae [1]) [micrograms/mL] | MIC K. pneumoniae ATCC-BAA-2146 (Klebsiella pneumoniae [1]) [micrograms/mL] | MIC K. pneumoniae CCUG-59348 (Klebsiella pneumoniae [1]) [micrograms/mL] | MIC A. baumannii CCUG57249 (Acinetobacter baumannii [2]) [micrograms/mL] | MIC A. baumannii NCTC 13423 (Acinetobacter baumannii [2]) [micrograms/mL] | MIC A. baumannii NCTC 13424 (Acinetobacter baumannii [2]) [micrograms/mL] | MIC E. coli ATCC25922 (Escherichia coli [3]) [micrograms/mL] | MIC P. aeruginosa ATCC 27853 (Pseudomonas aeruginosa [4]) [micrograms/mL] | MIC P. aeruginosa ATCC CRM-9027 (Pseudomonas aeruginosa [4]) [micrograms/mL] | MIC P. aeruginosa ATCC-47 (Pseudomonas aeruginosa [4]) [micrograms/mL] | MIC P. aeruginosa CCUG 59626 (Pseudomonas aeruginosa [4]) [micrograms/mL] | MIC K. pneumoniae ATCC 4352 (Klebsiella pneumoniae [5]) [micrograms/mL] | MIC K. pneumoniae ATCC-BAA2146 (Klebsiella pneumoniae [5]) [micrograms/mL] | MIC K. pneumoniae CCUG-59348 (Klebsiella pneumoniae [5]) [micrograms/mL] | MIC A. baumannii ATCC13424 (Acinetobacter baumannii [6]) [micrograms/mL] | MIC A. baumannii ATCCBAA-747 (Acinetobacter baumannii [6]) [micrograms/mL] | MIC A. baumannii CCUG57249 (Acinetobacter baumannii [6]) [micrograms/mL] | MIC A. baumannii NCTC 13423 (Acinetobacter baumannii [6]) [micrograms/mL] | MIC E. coli NCTC9001 (Escherichia coli [7]) [micrograms/mL] | MIC P. aeruginosa ATCC 27853 (Pseudomonas aeruginosa [8]) [micrograms/mL] | SMILES | also measured
0.125 | 0.25 | 2 | ≤0.06 | ≤0.06 | 0.125 | 0.125 | 0.125 | 0.125 | 0.125 | 0.125 | 0.5 | 4 | >32 | 0.25 | 0.5 | 0.5 | 0.125 | 16 | 0.125 | CC(C)C[C@@H]1NC(=O)[C@@H](Cc2ccccc2)NC(=O)[C@H](CCN)NC(=O)[C@@H](NC(=O)[C@H](CN)NC(=O)[C@@H](NC(=O)C2CCCC2N)C(C)O)CCNC(=O)[C@H](C(C)O)NC(=O)[C@H](CCN)NC(=O)[C@H](CCN)NC1=O (stereo partly drawn) [Example 43, [2-Amino-cyclopentane-carbonyl]-L-Thr-L-Dap-polymyxin B hepatapeptide, TFA salt] (X4-[Thr(3ξ)][Dap][Dab][Dab][dF]L[Dab][Dab][Thr(3ξ)]; lactam 3-C) | MIC A. baumannii ATCC BAA-747 (Acinetobacter baumannii [2]; strain ATCC BAA-747): 0.125 micrograms/mL; MIC E. coli NCTC9001 (Escherichia coli [3]; strain NCTC9001): 0.125 micrograms/mL; MIC E. coli ATCC25922 (Escherichia coli [7]; strain ATCC25922): 2 micrograms/mL; MIC P. aeruginosa ATCC-47 (Pseudomonas aeruginosa [8]): 1 micrograms/mL; MIC P. aeruginosa ATCCCRM-9027 (Pseudomonas aeruginosa [8]): 0.125 micrograms/mL; MIC P. aeruginosa CCUG 59626 (Pseudomonas aeruginosa [8]): ≤0.06 micrograms/mL
0.25 | 0.5 | 1 | 0.25 | 0.125 | 0.125 | ≤0.06 | 0.5 | 0.5 | 0.25 | 0.25 | 0.25 | 2 | 32 | 1 | 2 | 2 | 1 | 16 | 0.25 | CC(C)C[C@@H]1NC(=O)[C@@H](Cc2ccccc2)NC(=O)[C@H](CCN)NC(=O)[C@@H](NC(=O)[C@H](CN)NC(=O)[C@@H](NC(=O)C(O)C2CCCCC2)C(C)O)CCNC(=O)[C@H](C(C)O)NC(=O)[C@H](CCN)NC(=O)[C@H](CCN)NC1=O (stereo partly drawn) [Example 45, [2-cyclohexyl-2-hydroxyethanoyl]-L-Thr-L-Dap-polymyxin B heptapeptide, TFA salt] (ξHexahydromandeloyl-[Thr(3ξ)][Dap][Dab][Dab][dF]L[Dab][Dab][Thr(3ξ)]; lactam 3-C) | MIC P. aeruginosa ATCC-47 (Pseudomonas aeruginosa [8]): 1 micrograms/mL; MIC P. aeruginosa ATCCCRM-9027 (Pseudomonas aeruginosa [8]): 0.125 micrograms/mL; MIC P. aeruginosa CCUG 59626 (Pseudomonas aeruginosa [8]): 0.125 micrograms/mL
